The source made the active and inactive calls.
Key:
[1] = biological target: T1, Short transient receptor potential channel 4 (Mus musculus, UniProt Q9QUQ5); experiment: block of DAMGO-driven TRPC4 calcium entry – cell-based, HEK293 TRPC4/mu-opioid, Fluo-4 calcium, dose response (AID 434942); assay type: functional;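 also: potency of inhibitors blocking the TRPC4 calcium response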
T1 sequence (Q9QUQ5 whole entry): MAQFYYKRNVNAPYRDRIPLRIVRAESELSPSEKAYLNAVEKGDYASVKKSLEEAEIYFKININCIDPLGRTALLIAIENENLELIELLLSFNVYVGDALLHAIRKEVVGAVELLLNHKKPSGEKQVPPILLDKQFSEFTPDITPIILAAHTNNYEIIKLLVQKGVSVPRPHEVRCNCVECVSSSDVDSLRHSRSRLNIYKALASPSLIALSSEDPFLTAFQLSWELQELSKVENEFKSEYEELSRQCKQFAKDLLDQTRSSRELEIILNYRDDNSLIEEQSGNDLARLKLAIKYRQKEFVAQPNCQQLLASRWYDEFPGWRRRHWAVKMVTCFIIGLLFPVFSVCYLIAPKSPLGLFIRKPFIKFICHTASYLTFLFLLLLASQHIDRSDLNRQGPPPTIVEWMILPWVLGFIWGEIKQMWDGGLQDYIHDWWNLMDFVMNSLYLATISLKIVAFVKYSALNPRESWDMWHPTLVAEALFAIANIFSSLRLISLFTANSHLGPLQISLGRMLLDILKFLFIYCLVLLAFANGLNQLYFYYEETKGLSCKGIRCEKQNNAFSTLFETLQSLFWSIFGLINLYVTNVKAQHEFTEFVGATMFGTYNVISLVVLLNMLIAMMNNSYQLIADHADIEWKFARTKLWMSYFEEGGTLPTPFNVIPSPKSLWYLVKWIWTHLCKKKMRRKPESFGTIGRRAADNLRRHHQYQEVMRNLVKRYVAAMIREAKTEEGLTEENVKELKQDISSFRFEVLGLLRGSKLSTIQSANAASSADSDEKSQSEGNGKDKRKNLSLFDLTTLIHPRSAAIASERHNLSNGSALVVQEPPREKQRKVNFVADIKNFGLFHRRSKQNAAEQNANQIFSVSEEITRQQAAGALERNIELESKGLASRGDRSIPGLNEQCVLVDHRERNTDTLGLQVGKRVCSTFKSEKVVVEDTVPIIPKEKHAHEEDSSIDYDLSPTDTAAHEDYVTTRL

Aminopeptidase N = biological target: T2, Aminopeptidase N (Plasmodium falciparum FcB1/Columbia, UniProt O96935); experiment: malaria alanyl aminopeptidase activity blockers – biochemical, fluorogenic H-Leu-NHMec substrate, 1536-well (AID 1445); set-up: species or system Plasmodium falciparum 3D7, 3D7
T2 sequence (O96935 whole entry): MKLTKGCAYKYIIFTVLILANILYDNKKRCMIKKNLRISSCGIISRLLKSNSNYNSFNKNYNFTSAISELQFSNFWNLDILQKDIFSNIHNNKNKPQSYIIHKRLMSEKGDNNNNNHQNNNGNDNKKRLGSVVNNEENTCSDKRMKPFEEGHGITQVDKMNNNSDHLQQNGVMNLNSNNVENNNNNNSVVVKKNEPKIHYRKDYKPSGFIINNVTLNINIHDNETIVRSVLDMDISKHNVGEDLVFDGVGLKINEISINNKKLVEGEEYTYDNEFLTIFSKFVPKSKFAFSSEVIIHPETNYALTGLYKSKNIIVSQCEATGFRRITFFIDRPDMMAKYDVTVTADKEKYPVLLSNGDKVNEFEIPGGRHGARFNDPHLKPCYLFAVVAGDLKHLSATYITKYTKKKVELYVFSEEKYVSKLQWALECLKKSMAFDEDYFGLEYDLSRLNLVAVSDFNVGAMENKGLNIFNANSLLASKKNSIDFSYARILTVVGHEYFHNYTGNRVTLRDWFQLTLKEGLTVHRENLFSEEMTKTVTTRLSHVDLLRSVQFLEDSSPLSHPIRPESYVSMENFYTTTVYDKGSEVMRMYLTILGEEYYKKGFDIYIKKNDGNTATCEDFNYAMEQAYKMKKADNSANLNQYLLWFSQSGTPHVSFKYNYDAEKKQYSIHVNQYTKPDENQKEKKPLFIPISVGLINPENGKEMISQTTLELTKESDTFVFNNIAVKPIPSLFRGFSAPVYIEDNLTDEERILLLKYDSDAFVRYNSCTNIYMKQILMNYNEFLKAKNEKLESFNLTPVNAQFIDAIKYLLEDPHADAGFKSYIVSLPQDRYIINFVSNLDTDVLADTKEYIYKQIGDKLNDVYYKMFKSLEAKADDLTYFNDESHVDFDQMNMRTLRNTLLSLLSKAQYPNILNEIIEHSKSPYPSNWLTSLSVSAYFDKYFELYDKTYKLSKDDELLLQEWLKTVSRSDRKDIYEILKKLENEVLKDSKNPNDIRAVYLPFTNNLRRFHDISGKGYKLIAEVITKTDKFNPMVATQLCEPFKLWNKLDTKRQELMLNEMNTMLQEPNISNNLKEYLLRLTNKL

[2] = biological target: T3, Heat shock factor protein 1 (Mus musculus, UniProt P38532); experiment: decrease of HSF1-responsive luciferase luminescence – cell-based, NIH3T3, dose retest, confirmation (AID 2382); assay type: functional;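 also: NIH3T3 fibroblasts with HSF1-driven luciferase reporter stressed by proteasome inhibitor MG132; luminescence from HSF1-driven luciferase expression after 8 hours of MG132 stress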
T3 sequence (P38532 whole entry): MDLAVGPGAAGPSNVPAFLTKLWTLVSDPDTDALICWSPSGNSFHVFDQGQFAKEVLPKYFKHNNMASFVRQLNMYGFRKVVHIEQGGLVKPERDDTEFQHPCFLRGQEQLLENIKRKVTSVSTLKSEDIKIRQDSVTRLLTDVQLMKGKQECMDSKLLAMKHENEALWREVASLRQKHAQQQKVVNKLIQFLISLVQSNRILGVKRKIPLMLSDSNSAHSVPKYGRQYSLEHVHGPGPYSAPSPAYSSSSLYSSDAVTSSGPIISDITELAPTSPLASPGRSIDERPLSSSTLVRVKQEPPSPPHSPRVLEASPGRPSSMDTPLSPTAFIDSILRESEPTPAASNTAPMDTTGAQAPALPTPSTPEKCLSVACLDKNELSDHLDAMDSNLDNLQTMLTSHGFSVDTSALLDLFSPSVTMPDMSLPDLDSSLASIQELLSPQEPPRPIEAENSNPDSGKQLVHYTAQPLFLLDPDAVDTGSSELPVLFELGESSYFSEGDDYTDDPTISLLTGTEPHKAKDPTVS

[3] = biological target: T4, High affinity choline transporter 1 (Homo sapiens, UniProt Q9GZV3); experiment: human choline transporter blockers, potency – cell-based, 5-point CRC, membrane potential dye, dose response (AID 504840); assay type: functional
T4 sequence (Q9GZV3 whole entry): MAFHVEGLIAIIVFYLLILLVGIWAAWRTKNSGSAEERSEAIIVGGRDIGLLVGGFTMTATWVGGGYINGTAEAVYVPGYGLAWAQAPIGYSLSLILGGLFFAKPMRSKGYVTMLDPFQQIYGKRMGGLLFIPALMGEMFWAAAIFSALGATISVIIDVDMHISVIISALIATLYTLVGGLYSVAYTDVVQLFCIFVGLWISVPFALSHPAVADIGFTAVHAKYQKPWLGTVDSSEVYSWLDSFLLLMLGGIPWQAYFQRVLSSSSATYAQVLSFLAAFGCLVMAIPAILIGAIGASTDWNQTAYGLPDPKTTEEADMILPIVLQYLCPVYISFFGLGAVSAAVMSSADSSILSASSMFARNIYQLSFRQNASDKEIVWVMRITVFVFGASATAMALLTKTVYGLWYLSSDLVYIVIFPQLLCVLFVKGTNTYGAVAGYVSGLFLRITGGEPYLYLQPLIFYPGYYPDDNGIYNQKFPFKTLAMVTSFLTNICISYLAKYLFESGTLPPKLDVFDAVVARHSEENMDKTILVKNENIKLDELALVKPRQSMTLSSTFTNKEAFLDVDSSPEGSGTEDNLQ

cells [4] = assay type: functional, cell-based
cells [5] = assay type: functional, cell-based; remark: listed apart in the source
[6] = biological target: FAD-linked sulfhydryl oxidase ALR (Homo sapiens, UniProt P55789); experiment: ALR-catalysed DTT oxidation blockers – biochemical, H2O2 detection, luminescence, cherry-pick, dose response (AID 493248)
Genome polyprotein = Genome polyprotein (dengue virus type 2, UniProt P29990); experiment: flavivirus cap methylation enzyme inhibition – biochemical, confirmation dose response, primary screen (AID 588689); assay type: functional
Chain of Genome polyprotein (P29990 2492-3391 limits assumed): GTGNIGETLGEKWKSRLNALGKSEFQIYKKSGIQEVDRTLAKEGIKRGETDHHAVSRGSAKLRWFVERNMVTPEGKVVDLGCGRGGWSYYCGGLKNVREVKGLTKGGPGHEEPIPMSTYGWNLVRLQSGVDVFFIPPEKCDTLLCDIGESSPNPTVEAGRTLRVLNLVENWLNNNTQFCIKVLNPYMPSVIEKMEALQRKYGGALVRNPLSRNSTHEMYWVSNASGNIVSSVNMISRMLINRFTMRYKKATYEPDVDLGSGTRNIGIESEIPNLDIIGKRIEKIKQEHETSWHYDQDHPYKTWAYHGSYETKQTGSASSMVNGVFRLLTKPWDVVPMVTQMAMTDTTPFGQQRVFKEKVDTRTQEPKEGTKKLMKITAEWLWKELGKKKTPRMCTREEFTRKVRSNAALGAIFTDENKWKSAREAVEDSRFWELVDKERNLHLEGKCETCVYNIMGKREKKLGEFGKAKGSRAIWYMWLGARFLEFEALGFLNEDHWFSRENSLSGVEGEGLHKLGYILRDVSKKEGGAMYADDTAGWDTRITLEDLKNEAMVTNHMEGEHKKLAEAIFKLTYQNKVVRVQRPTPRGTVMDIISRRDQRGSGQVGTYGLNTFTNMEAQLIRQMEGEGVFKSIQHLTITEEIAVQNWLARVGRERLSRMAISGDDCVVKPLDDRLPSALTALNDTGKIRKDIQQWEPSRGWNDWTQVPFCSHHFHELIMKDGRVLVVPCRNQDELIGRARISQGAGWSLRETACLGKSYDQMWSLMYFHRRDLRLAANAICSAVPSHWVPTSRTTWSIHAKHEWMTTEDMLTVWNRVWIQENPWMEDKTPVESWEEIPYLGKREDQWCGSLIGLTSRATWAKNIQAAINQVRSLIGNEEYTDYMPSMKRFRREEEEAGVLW

Chain of FAD-linked sulfhydryl oxidase ALR (P55789 whole entry): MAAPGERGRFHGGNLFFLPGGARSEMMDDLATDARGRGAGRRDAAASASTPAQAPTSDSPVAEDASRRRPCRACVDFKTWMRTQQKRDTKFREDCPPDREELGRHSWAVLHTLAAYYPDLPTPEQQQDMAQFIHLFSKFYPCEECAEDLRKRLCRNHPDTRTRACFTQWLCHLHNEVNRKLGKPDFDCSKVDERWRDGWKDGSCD

Row | Compound | EC50 [1] | IC50 (Aminopeptidase N) | IC50 [3] | other results
1 | CN1CCN(c2ccc(NC(=O)c3ccc(Br)o3)cc2)CC1 | 0.841 µM (active) | – | – | –
2 | O=C(O)c1cccc(NC(=S)NC(NC(=O)c2ccco2)C(Cl)(Cl)Cl)c1 (stereo not given) | – | 39.9 µM (active) | – | EC50 [2]: > 195 µM (not active)
3 | CCOC(=O)c1sc(NC(=O)CCN2CCN(C)CC2)c(C(=O)OCC)c1C | – | – | 14.5 µM (active) | –
4 | COc1cccc(OC)c1OCCCCCc1c(C)n[nH]c1C | – | – | 9.12 µM (active) | –
5 | Cc1cc(OCC(=O)Nc2ccc(N3CCN(C)CC3)cc2)ccc1Cl | 2.66 µM (active) | – | – | –
6 | O=C(CCc1ccccc1)Nc1ccnn1C1CCN(C/C=C/c2ccccc2)CC1 | 1.5 µM (active) | – | – | EC50 (cells [4]): > 350 µM (not active); EC50 (cells [5]): > 350 µM (not active)
7 | S=C(NCCCN1CCOCC1)Nc1cccc(-c2nnc3n2CCCCC3)c1 | – | – | 13.9 µM (active) | –
8 | CCC1=Nc2cc(C(=O)N3CCC4(CC3)OCCO4)ccc2Sc2ccc(C)cc21 | 7.5 µM (active) | – | – | –
9 | c1ccc(Nc2[nH]nnc2-c2ccccc2)cc1 | 1.88 µM (active) | – | – | AC50 [6]: > 100 µM (inactive)
10 | O=C(O)C(c1ccccc1)N1C(=O)/C(=C/c2cccs2)SC1=S (stereo not given) | – | 57.7 µM (active) | – | IC50 (Genome polyprotein): 46.9 µM (active)
11 | CCCCCCC(=O)N(O)C1CC(=O)N(c2ccccc2)C1=O (stereo not given) | – | 66.5 µM (active) | – | –
12 | Cc1c(N2C(=O)C(O)=C(C(=O)c3ccc(Br)cc3)C2c2cccnc2)c(=O)n(-c2ccccc2)n1C (stereo not given) | – | 38.1 µM (active) | – | –
13 | COc1ccc(OCC(=O)N2CCN(C(=O)COc3ccc(Br)cc3)CC2)cc1 | – | 59.2 µM (active) | – | –
14 | CC1CCN(S(=O)(=O)c2ccc3c(c2)N(CC(=O)NCCN2C(C)CCCC2C)C(=O)CS3)CC1 (stereo not given) | – | – | 11.3 µM (active) | –
15 | CC(C)=CCN1CCN(Cc2cn(C(C)C)c3ccccc23)CC1CCO (stereo not given) | – | – | 13.2 µM (active) | –

Source: ChEMBL document CHEMBL1201862, “PubChem BioAssay data set” (2004)
